One experiment has as its target c-Cbl (residues 47-435) (Homo sapiens (Human), UniProt P22681). As to the kind of experiment: c-Cbl SPR assay. It is filed as binding. Conditions: 20° C. Here is the method:
(§1) Affinity of binding to Cbl-b and c-Cbl for compounds described herein was assessed by surface plasmon resonance (SPR) according to the following protocol.
(§2) A surface capture range of 1300-1500 RU of protein was used for both isoforms.
(§3) For SPR measurements, 6 concentrations with 2 fold serial dilution were measured with blanks flanking each series for double referencing. […] SPR sensorgrams were recorded in multi-cycle kinetics format, with a contact time of 60 seconds and a flow rate of 40 μl/min, the dissociation time was varied between 120-1200 seconds aiming for 4-5 half-lives of the measured interaction.
(§4) Kinetic and affinity parameters were extracted from the multicycle kinetics data fitting to a 1:1 binding model using the Biacore™ Incyte evaluation software (Cytiva).
(§5) Chaser assay utilize a single cycle kinetics SPR experiment with a contact time of 120 seconds, a flow rate of 50 μl/min and a dissociation time of 450 seconds. Single cycle kinetics titration utilized an initial blank injection and 5 concentrations with 2 fold serial dilution with a maximum concentration of 500 nM, blanked to a preceding 6 point blank single cycle kinetics injection for double referencing.
(§6) The kd is measured independently by determining the percentage unoccupied compound binding site over time by measuring the binding of a chaser compound measured by SPR.
(§7) Chaser binding was measured by a multicycle kinetics SPR experiment using a contact time of 20 seconds, a flow rate of 30 μl/min, and a dissociation time of 120 seconds. […] The % compound bound at a given time was determined by comparison to a single injection of chaser preceding the single cycle kinetics titration defined below. % Compound Bound=(1−(RUT/RUT0))*100
(§8) The % compound bound is plotted against time in seconds and fit to a single exponential, where the exponent represents the kd of the compound-protein complex. The single cycle kinetics experiment of the compound is then fit with a fixed kd determined using the chaser.

Experiment [1] concerns the target Human Cbl-b (residues 40-426) (Homo sapiens (Human), UniProt Q13191). As to the kind of experiment: Cbl-b SPR assay. Conditions: for Fold of selectivity: C-cbl SPR Kd vs Cbl-b SPR Kd; for Kd: SPR, 20° C. It is filed as binding. The method, then:
as §1, §2, §3, §4, §5, §6, §7, §8

The target in the next experiment is c-Cbl (Homo sapiens (Human), UniProt P22681). As to the kind of experiment: C-Cbl LCK Ub TR-FRET assay (C-cbl Lck HTRF). In kind it is biochemical. The essentials: (§9)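 Detection reagents added, brief spin, 20 min RT. IC50 fit normalized to no-LCK (low) and DMSO (high) controls.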
c-Cbl, sequence (P22681 47-435): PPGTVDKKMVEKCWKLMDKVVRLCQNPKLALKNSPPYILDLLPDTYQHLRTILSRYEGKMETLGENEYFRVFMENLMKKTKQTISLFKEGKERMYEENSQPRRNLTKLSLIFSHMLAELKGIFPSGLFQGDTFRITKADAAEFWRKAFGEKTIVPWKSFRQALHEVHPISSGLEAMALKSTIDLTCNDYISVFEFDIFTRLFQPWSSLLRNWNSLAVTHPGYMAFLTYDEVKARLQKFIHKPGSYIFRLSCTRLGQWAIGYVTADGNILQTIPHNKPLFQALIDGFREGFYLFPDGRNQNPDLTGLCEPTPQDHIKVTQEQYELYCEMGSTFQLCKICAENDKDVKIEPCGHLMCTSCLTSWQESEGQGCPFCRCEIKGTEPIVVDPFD
In another experiment the target is Cbl-b (Homo sapiens (Human), UniProt Q13191). The experiment is described as follows: Cbl-b LCK Ub TR-FRET assay (Cbl-b Lck HTRF). Conditions: for IC50: Cbl-b LCK Ub TR-FRET; for fold-selectivity (Cbl-b over C-cbl): ratio C-cbl Lck HTRF IC50 / Cbl-b Lck HTRF IC50. It is filed as biochemical. Summed up:
as §9
A general note: TR-FRET usually uses a lanthanide donor and a delayed reading to cut background.

A word on the Kd: it is the constant that tells how readily two partners part at equilibrium. A higher Kd goes with lower affinity. One may read the IC50 as the concentration needed to halve the response being measured. Low values mean greater potency in that assay, high ones weaker potency in that assay.

c-Cbl (residues 47-435), sequence (P22681 47-435): as above
Cbl-b, sequence (Q13191 40-426): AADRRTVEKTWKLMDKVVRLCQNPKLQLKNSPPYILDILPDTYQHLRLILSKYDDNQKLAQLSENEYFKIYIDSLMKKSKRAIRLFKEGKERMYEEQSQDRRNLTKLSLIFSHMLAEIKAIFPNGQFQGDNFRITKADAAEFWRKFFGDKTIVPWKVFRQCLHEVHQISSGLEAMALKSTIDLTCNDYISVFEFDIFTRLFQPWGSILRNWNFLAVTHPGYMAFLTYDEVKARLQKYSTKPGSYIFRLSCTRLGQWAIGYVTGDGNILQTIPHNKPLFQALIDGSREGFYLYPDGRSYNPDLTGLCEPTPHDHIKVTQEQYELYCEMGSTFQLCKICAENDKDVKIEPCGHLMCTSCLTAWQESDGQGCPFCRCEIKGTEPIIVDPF
Human Cbl-b (residues 40-426), sequence (Q13191 40-426): as above

At c-Cbl (residues 47-435), `CC(C)[C@H]1CN(C)CCN1Cc1cc2c(c(C(F)(F)F)c1)CN(c1cc([C@]3(c4nncn4C)C[C@H](C)C3)cc(OC3CCCC3)n1)C2=O` (single isomer, unassigned) [Compound 73] gave a Kd of 3 nM. In experiment [1], the Fold of selectivity is 3.0× and binding was characterised by a dissociation constant (Kd) of 1 nM. The concentration for half-maximal inhibition (IC50) at c-Cbl was 35 nM. At Cbl-b, the midpoint of inhibition, the IC50, lay at 22 nM and the “fold-selectivity (Cbl-b over C-cbl)” value is on record as “(1.6x)”.
`CC(C)[C@H]1CN(C)CCN1Cc1cc2c(c(C(F)(F)F)c1)CN(c1cc([C@]3(c4nncn4C)C[C@H](C)C3)cc(NC3CCCC3)n1)C2=O` (single isomer, unassigned) [Compound 75] came in with an equilibrium dissociation constant (Kd) at c-Cbl (residues 47-435) of 230 nM. In experiment [1], this compound had a Fold of selectivity of 7.7× and a Kd of 31 nM. Moreover, the IC50 against c-Cbl was 22 nM. On Cbl-b, the IC50 stood at 17 nM and the “fold-selectivity (Cbl-b over C-cbl)” value is given as “(1.3x)”.
`Cn1cnnc1[C@]1(c2cccc(N3Cc4c(cc(CNC5(C)CCC5)cc4C(F)(F)F)C3=O)c2)CCC(F)(F)C1` (single isomer, unassigned) [Compound 107] showed a Kd at c-Cbl (residues 47-435) of 1700 nM. Further, in experiment [1], the Fold of selectivity was 6.8× and the Kd turned out to be 250 nM. The same compound yielded an IC50 against c-Cbl of 1800 nM. Further, on Cbl-b, 300 nM corresponded to half-maximal inhibition (IC50) and the “fold-selectivity (Cbl-b over C-cbl)” value is recorded as 6.0x.
With `Cn1cnnc1[C@@H](c1cccc(N2Cc3c(cc(CNC4(C)CCC4)cc3C(F)(F)F)C2=O)c1)C1CC(=O)C1` (single isomer, unassigned) [Compound 114], the Kd at c-Cbl (residues 47-435) came to 610 nM; in experiment [1], 290 nM. The compound further displayed a Fold of selectivity in experiment [1] of 2.1×. Also, the IC50 at c-Cbl was 770 nM; against Cbl-b, 360 nM. Moreover, the “fold-selectivity (Cbl-b over C-cbl)” value at Cbl-b is given as 2.1 x.
Turning to `Cn1cnnc1[C@H](c1cccc(N2Cc3c(cc(CNC4(C)CCC4)cc3C(F)(F)F)C2=O)c1)C1CC(=O)C1` (single isomer, unassigned) [Compound 115], the figures for the Kd (on c-Cbl (residues 47-435); in experiment [1]) were 8.9 nM and 1.8 nM, respectively. Moreover, in experiment [1], the Fold of selectivity was 5.2×. The results for the IC50 at c-Cbl and against Cbl-b were 23 nM and 10 nM, respectively. Also, the “fold-selectivity (Cbl-b over C-cbl)” value at Cbl-b worked out at 2.3x.
In turn, `CO[C@](c1cccc(N2Cc3c(cc(CNC4(C)CCC4)cc3C(F)(F)F)C2=O)c1)(c1nncn1C)C1CCC1` (single isomer, unassigned) [Compound 119] came in with a Kd at c-Cbl (residues 47-435) of 2300 nM. In experiment [1], this compound came in with a Fold of selectivity of 3.0× and a Kd of 780 nM. Further, the IC50 on c-Cbl turned out to be 13000 nM. At Cbl-b, the IC50 stood at 3600 nM and the “fold-selectivity (Cbl-b over C-cbl)” value was 3.6x.
Regarding `Cn1cnnc1[C@H](c1cccc(N2Cc3c(cc(CNC4(C)CCC4)cc3C(F)(F)F)C2=O)c1)C1CC(F)C1` (single isomer, unassigned) [Compound 127], at c-Cbl (residues 47-435), the affinity, expressed as Kd, was 4800 nM. Besides, in experiment [1], the Fold of selectivity was found to be 13× and binding was characterised by a dissociation constant (Kd) of 360 nM. Moreover, it took 2000 nM to reach half-maximal inhibition against c-Cbl (IC50). On Cbl-b, half-maximal inhibition (IC50) required 410 nM and the “fold-selectivity (Cbl-b over C-cbl)” value is given as 4.1x.
In the case of `Cn1cnnc1[C@H](c1cccc(N2Cc3c(cc(CNC4(C)CCC4)cc3C(F)(F)F)C2=O)c1)C1CC(F)C1` (single isomer, unassigned) [Compound 128], the affinity on c-Cbl (residues 47-435), expressed as Kd, was 3000 nM. In addition, in experiment [1], the Fold of selectivity is reported as 13× and the dissociation constant (Kd) came to 230 nM. The concentration for half-maximal inhibition (IC50) on c-Cbl came to 1300 nM. On Cbl-b, the midpoint of inhibition, the IC50, lay at 240 nM and the “fold-selectivity (Cbl-b over C-cbl)” value turned out to be 4.9x.
Take `Cn1cnnc1[C@@H](c1cccc(N2Cc3c(cc(CNC4(C)CCC4)cc3C(F)(F)F)C2=O)c1)C1CC(F)C1` (single isomer, unassigned) [Compound 129]: the Kd worked out at 43 nM on c-Cbl (residues 47-435) and 3.6 nM in experiment [1]. The compound also registered a Fold of selectivity in experiment [1] of 13×. Besides, the values for the half-maximal inhibitory concentration (IC50) against c-Cbl and against Cbl-b were 39 nM and 11 nM, respectively. The “fold-selectivity (Cbl-b over C-cbl)” value at Cbl-b amounted to 3.5x.
`Cn1cnnc1[C@@H](c1cccc(N2Cc3c(cc(CNC4(C)CCC4)cc3C(F)(F)F)C2=O)c1)C1CC(F)C1` (single isomer, unassigned) [Compound 130] returned a Kd at c-Cbl (residues 47-435) of 1.6 nM. In experiment [1], this compound had a Fold of selectivity of 5.3× and a Kd of 0.3 nM. Further, the IC50 against c-Cbl turned out to be 5.7 nM. In addition, on Cbl-b, 5.5 nM corresponded to half-maximal inhibition (IC50) and the “fold-selectivity (Cbl-b over C-cbl)” value turned out to be 1.0x.
`COC1CC([C@H](c2cccc(N3Cc4c(cc(CNC5(C)CCC5)cc4C(F)(F)F)C3=O)c2)c2nncn2C)C1` (single isomer, unassigned) [Compound 131] yielded a Kd on c-Cbl (residues 47-435) of 4500 nM. In experiment [1], this compound gave a Fold of selectivity of 16× and a Kd of 280 nM. 5600 nM corresponded to half-maximal inhibition at c-Cbl (IC50). Also, at Cbl-b, 740 nM corresponded to half-maximal inhibition (IC50) and the “fold-selectivity (Cbl-b over C-cbl)” value was found to be 7.4x.
For the compound `COC1CC([C@H](c2cccc(N3Cc4c(cc(CNC5(C)CCC5)cc4C(F)(F)F)C3=O)c2)c2nncn2C)C1` (single isomer, unassigned) [Compound 132], the Kd at c-Cbl (residues 47-435) stood at 5600 nM. In experiment [1], the Fold of selectivity is 15× and the Kd came to 360 nM. At c-Cbl, this compound yielded an IC50 of 4800 nM. Moreover, at Cbl-b, the IC50 stood at 600 nM and the “fold-selectivity (Cbl-b over C-cbl)” value amounted to 8.0x.
With `COC1CC([C@@H](c2cccc(N3Cc4c(cc(CNC5(C)CCC5)cc4C(F)(F)F)C3=O)c2)c2nncn2C)C1` (single isomer, unassigned) [Compound 133], the Kd amounted to 660 nM on c-Cbl (residues 47-435) and 83 nM in experiment [1]. This compound registered a Fold of selectivity in experiment [1] of 7.7×. Besides, the IC50 on c-Cbl came out at 730 nM; against Cbl-b, 150 nM. Also, the “fold-selectivity (Cbl-b over C-cbl)” value on Cbl-b is reported as 4.9x.
With `COC1CC([C@@H](c2cccc(N3Cc4c(cc(CNC5(C)CCC5)cc4C(F)(F)F)C3=O)c2)c2nncn2C)C1` (single isomer, unassigned) [Compound 134], at c-Cbl (residues 47-435), binding was characterised by a dissociation constant (Kd) of 13 nM. In experiment [1], this compound had a Fold of selectivity of 6.6× and a Kd of 1.9 nM. The compound further showed an IC50 against c-Cbl of 17 nM. Further, on Cbl-b, the IC50 was 9.8 nM and the “fold-selectivity (Cbl-b over C-cbl)” value was 1.8x.
Turning to `Cc1cnnn1[C@@H](c1cccc(N2Cc3c(cc(CNC4(C)CCC4)cc3C(F)(F)F)C2=O)c1)C1COC1` (single isomer, unassigned) [Compound 135], the Kd on c-Cbl (residues 47-435) was 63 nM. Further, in experiment [1], the Fold of selectivity was determined as 4.9× and the Kd is 13 nM. Further, the IC50 on c-Cbl worked out at 69 nM. Further, on Cbl-b, it took 37 nM to reach half-maximal inhibition (IC50) and the “fold-selectivity (Cbl-b over C-cbl)” value is listed as 1.9x.
As for `Cn1cnnc1[C@@H](c1cccc(N2Cc3c(cc(CNC4(C)CCC4)cc3C(F)(F)F)C2=O)c1)[C@H]1C[C@H](C#N)C1` (single isomer, unassigned) [Compound 139], the equilibrium dissociation constant (Kd) at c-Cbl (residues 47-435) was 1000 nM; in experiment [1], 220 nM. Also, in experiment [1], the Fold of selectivity was determined as 4.6×. The results for the IC50 on c-Cbl and against Cbl-b were 1300 nM and 350 nM, respectively. The “fold-selectivity (Cbl-b over C-cbl)” value on Cbl-b was 3.6x.
In the case of `Cn1cnnc1[C@@H](c1cccc(N2Cc3c(cc(CNC4(C)CCC4)cc3C(F)(F)F)C2=O)c1)[C@H]1C[C@@H](C#N)C1` (single isomer, unassigned) [Compound 140], the equilibrium dissociation constant (Kd) at c-Cbl (residues 47-435) turned out to be 850 nM. In experiment [1], this compound returned a Fold of selectivity of 0.88× and a Kd of 980 nM. In addition, the IC50 at c-Cbl was found to be 1500 nM. At Cbl-b, the midpoint of inhibition, the IC50, lay at 830 nM and the “fold-selectivity (Cbl-b over C-cbl)” value worked out at 1.9x.
On c-Cbl (residues 47-435), `Cn1cnnc1[C@H](c1cccc(N2Cc3c(cc(CNC4(C)CCC4)cc3C(F)(F)F)C2=O)c1)[C@H]1C[C@@H](C#N)C1` (single isomer, unassigned) [Compound 141] registered a Kd of 9.4 nM. In addition, in experiment [1], the Fold of selectivity is reported as 5.1× and the affinity, expressed as Kd, was 1.9 nM. The IC50 on c-Cbl came out at 12 nM. Moreover, at Cbl-b, the 50% inhibitory concentration (IC50) was 7.6 nM and the “fold-selectivity (Cbl-b over C-cbl)” value is given as 1.6x.
Take `Cn1cnnc1[C@H](c1cccc(N2Cc3c(cc(CNC4(C)CCC4)cc3C(F)(F)F)C2=O)c1)[C@H]1C[C@H](C#N)C1` (single isomer, unassigned) [Compound 142]: the Kd on c-Cbl (residues 47-435) was 1300 nM. Further, in experiment [1], the Fold of selectivity amounted to 3.8× and the affinity, expressed as Kd, was 370 nM. This compound displayed an IC50 against c-Cbl of 350 nM. In addition, on Cbl-b, the IC50 is 200 nM and the “fold-selectivity (Cbl-b over C-cbl)” value is listed as 1.8x.

The values are drawn from patent publication US12187709B2 (Genentech, Inc., priority 2021, dated 2025).
